# Results as given in patent US20240018105A1, “TROPOLONE DERIVATIVES AND TAUTOMERS THEREOF FOR IRON REGULATION IN ANIMALS” (Kinesid Therapeutics, Inc., priority 2019, published 2024).
# How the values were obtained:
# Mouse 6-hour PK study = conditions: in vivo
# Excerpt: (§1) Compounds of the present disclosure were further evaluated in standard in vitro and in vivo Absorption, Distribution, Metabolism, Excretion (ADME) and Drug Metabolism and Pharmacokinetics (DMPK) assays to assess drug profiles important for further drug development.
# (§2) Such assessments included human and mouse liver microsomal stability assays as well as 6-hour mouse PK studies.
# [1] = Ligand facilitated Fe(III) efflux from liposomes; conditions: 10 uM ligand concentration
# Procedure, shortened: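 POPC:cholesterol liposomes loaded with Fe(III)-citrate (pH 7.0), used at 1 mM phosphorus with 1 mM ferrozine outside. Ligand at 40–1.25 μM final, in triplicate; absorbance at 562 nm read every 60 s for 120 min. Efflux rate k from single-phase association fit, averaged over triplicates.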
# [2] = test system: DMT1-deficient Caco-2 cells; assay: shDMT1-Caco2 55Fe transport assay; assay type: cell-based
# Excerpt: Assay 2: shDMT1-Caco2 ^55Fe Transport Assay to Assess Ligand Ability in Transporting Fe (III)
# Cells: DMT1-deficient Caco-2 cells (alias: “shDMT1,” or “4A” cells) were from Grillo et al. Science, 2017, and were cryopreserved in liquid nitrogen prior to use.
# Reagents and supplies: ^55FeCl3 was obtained from PerkinElmer (Boston, MA). Iron(III) chloride (FeCl3) hexahydrate was obtained from Sigma. Dulbecco's Modified Eagle Medium (DMEM), fetal bovine serum (FBS), L-glutamine, MEM nonessential amino acids, penicillin-streptomycin, G418, formic acid, methanol, high-purity water, ammonium formate, dimethyl sulfoxide (DMSO) were purchased from Fisher Scientific. Propranolol, atenolol and carbutamide were obtained from Sigma-Aldrich Chemical Company (St Louis, MO). Scintillation cocktail was obtained from Research Product International Co. (Mount Prospect, IL). Stericup filter system (PES membrane, 0.22 um pore size) was purchased from Fisher Scientific. Coming item #3378 24-well transwell insert plates. Test articles: known compounds hinokitiol and deferiprone were purchased from Sigma. They are tested side by side with the small molecule ligands disclosed in this application. DMSO stocks (10 mM, which is 1,000× of the 10 μM dose level) of hinokitiol or test articles were prepared. A stock solution of 25 mM deferiprone in DMSO was prepared. The DMSO stock solutions were stored at −20° C. or below when not in use.
# The growth medium was prepared according to the following table
# Apical media (serum free DMEM, 10 mM MES, pH 6.5) was prepared. Apical master mix media was prepared fresh with the addition of 200 nM ^55Fe before each experiment. For the negative control propranolol and atenolol wells, 200 nM of non-radioactive iron was used.
# The basolateral media was serum-free DMEM, 10 mM HEPES, 2% bovine serum albumin (BSA), pH 7.4.
# For each experiment, cells were seeded into the 24-well transwell plates (0.5 mL of 50,000 cells/mL) with growth media. The basolateral companion plate was loaded with 1 mL of growth media. After 12-24 hr, both the apical and basolateral chamber were replaced with growth media. The apical media was changed 3× per week for 21-28 days, including a media change exactly 48 hr before the assay date.
# On the assay day, the TEER values were measured and the average TEER values was obtained. Individual wells with TEER vaule >35% lower than the average of all wells were excluded. For the qualified wells, the apical layer (twice) and basolaterial (once) chambers were washed with PBS. The basolateral companion plate was then filled with 1 mL of basolateral media. Via addition down the side-wall of the apical well, 300 μL per well of the apical assay master mix, with the indicated dose level of test article, was added. Each dose was tested in triplicate. The plates were incubated (5% CO2 and 90% humidity at 37° C.) for the indicated timepoints. At each indicated timepoint, the basolateral supernatant was gently mixed via pipetting, and 200 μL of the basolateral supernatant was transferred to scintillation vials. To each scintillation counting vial, 5 mL of scintillation cocktail fluid was added. For each scintillation vial, the radioactivity (CPM) was determined with liquid scintillation counter LS6500. The counting time per vial was 5 min.
# All raw CPM values are divided by the average value of blank DMSO solution to give a fold of change above the DMSO value. The mean and standard deviation of each compound at each concentration level and at each time point measured was calculated to give the fold change (fc) value.
# For rank order compounds, the fc value of a ligand at 4 h time point is further divided by the fold change (fc) value of hinokitiol (a positive control compound) at an equimolar concentration to arrive at the FC (normalized fold of change) value. Data reported in Tables 1 and 2 is 4 hr time point FC=fc-ligand @ 3 uM/fc-hino @ 3 uM, and FC hino=1.
# [3] = Mouse liver microsomal stability assay; assay type: in vitro ADME
# Excerpt: as §1, §2
# [4] = Human liver microsomal stability assay; assay type: in vitro ADME
# Excerpt: as §1, §2
SMILES,AUC(0-t) (Mouse 6-hour PK study) [µg·h/mL],Cmax (Mouse 6-hour PK study) [µg/mL],half-life (Mouse 6-hour PK study) [h],mouse 6-hour PK properties compared to hinokitiol (Mouse 6-hour PK study),Liposome Fe transport kefflux at 10 10 μM ([1]; Table 1),"Caco2 shDMT1 transport FC @ 3 μM, 4h ([2]; Caco-2)","half-life ([3]; mouse, microsomes) [h]","microsomal CLint ([3]; mouse, microsomes) [µL/min/mg]","half-life ([4]; human, microsomes) [h]","microsomal CLint ([4]; human, microsomes) [µL/min/mg]",Liposome Fe transport Kefflux at 10 μM ([1]; Table 2),Liposome Fe transport Kefflux at 10 μM ([1]; Table 1),"Caco2 shDMT1 transport FC @ 3 μM, 4h ([2]; 3 μM, 4 h, fold change normalized to hinokitiol (FC hino=1), Table 1)","Caco2 shDMT1 transport FC @ 3 μM, 4h ([2]; 3 μM, 4 h, fold change normalized to hinokitiol (FC hino=1), Table 2)","microsomal CLint ([3]; mouse liver microsomes, Table 4, read-out: Mouse CLint) [µL/min/mg]","half-life ([3]; mouse liver microsomes, Table 4, read-out: Mouse t1/2) [h]","microsomal CLint ([4]; human liver microsomes, Table 4, read-out: Human CLint) [µL/min/mg]","half-life ([4]; human liver microsomes, Table 4, read-out: Human t1/2) [h]",clearence half-life (t1/2) and/or intrinsic clearence (CLint) compared to hinokitiol ([4]; microsomes)
O=c1cccc(-c2cnc(C3CC3)nc2)cc1O [Ex.37],1.5 to 5,0.5 to 1.5,1.25 to 4.99,one or more improved mouse 6-hour PK properties compared to hinokitiol,5-7.5,0.01-0.5,> 2,< 11.6,> 2,< 11.6,,,,,,,,,
"Cc1ncc(-c2cccc(=O)c(O)c2)cn1 [Ex.31, 2-hydroxy-4-(2-methylpyrimidin-5-yl)cyclohepta-2,4,6-trien-1-one]",1.5 to 5,1.5 to 5,1.25 to 4.99,one or more improved mouse 6-hour PK properties compared to hinokitiol,0.1-5,0.01-0.5,> 2,< 11.6,> 2,< 11.6,,,,,,,,,
"Cc1c(F)cncc1-c1ccc([O-])c(=O)cc1.[Na+] [Ex.23, sodium 4-(5-fluoro-4-methylpyridin-3-yl)-7-oxocyclohepta-1,3,5-trien-1-olate]",> 20,5 to 20,1.25 to 4.99,one or more improved mouse 6-hour PK properties compared to hinokitiol,10-25,0.01-0.5,> 2,< 11.6,> 2,< 11.6,,,,,,,,,
"Cc1ncc(-c2cccc(=O)c(O)c2)cc1F [Ex.57, 4-(5-fluoro-6-methylpyridin-3-yl)-2-hydroxycyclohepta-2,4,6-trien-1-one]",1.5 to 5,0.5 to 1.5,1.25 to 4.99,one or more improved mouse 6-hour PK properties compared to hinokitiol,7.5-10,0.01-0.5,> 2,< 11.6,> 2,< 11.6,,,,,,,,,
"O=c1cccc(-c2cncc(F)c2)cc1O [Ex.1, 4-(5-fluoropyridin-3-yl)-2-hydroxycyclohepta-2,4,6-trien-1-one]",5 to 20,5 to 20,< 1.25,one or more improved mouse 6-hour PK properties compared to hinokitiol,5-7.5,0.01-0.5,> 2,< 11.6,> 2,< 11.6,,,,,,,,,
"Cc1ccc(-c2cncc(F)c2)cc(O)c1=O [Ex.16, 4-(5-fluoropyridin-3-yl)-2-hydroxy-7-methylcyclohepta-2,4,6-trien-1-one]",> 20,5 to 20,1.25 to 4.99,one or more improved mouse 6-hour PK properties compared to hinokitiol,10-25,0.5-1,1.38,16.7,> 2,< 11.6,,,,,,,,,
"O=c1ccccc(Oc2ccc(F)cc2F)c1O [Ex.67, 3-(2,4-difluorophenoxy)-2-hydroxycyclohepta-2,4,6-trien-1-one]",1.5 to 5,1.5 to 5,1.25 to 4.99,one or more improved mouse 6-hour PK properties compared to hinokitiol,,0.01-0.5,,,,,<0.1,,,,,,,,
"O=c1cccc(-c2ccc(F)cn2)cc1O [Ex.3, 4-(5-fluoropyridin-2-yl)-2-hydroxycyclohepta-2,4,6-trien-1-one]",5 to 20,1.5 to 5,1.25 to 4.99,one or more improved mouse 6-hour PK properties compared to hinokitiol,5-7.5,0.01-0.5,> 2,< 11.6,> 2,< 11.6,,,,,,,,,
"Cc1ncc(-c2cccc(=O)c(O)c2)c(C)n1 [Ex.32, 4-(2,4-dimethylpyrimidin-5-yl)-2-hydroxycyclohepta-2,4,6-trien-1-one]",5 to 20,1.5 to 5,1.25 to 4.99,one or more improved mouse 6-hour PK properties compared to hinokitiol,5-7.5,0.01-0.5,> 2,< 11.6,> 2,< 11.6,,,,,,,,,
"CC(C)c1cccc(=O)c(O)c1 [hinokitiol, reference compound]",,,,,,,,,,,7.77,7.77,1,1.00,43.4,0.533,150,0.153,
"O=c1ccccc(-c2ccc(F)cn2)c1O [Ex.26, 3-(5-fluoropyridin-2-yl)-2-hydroxycyclohepta-2,4,6-trien-1-one]",1.5 to 5,1.5 to 5,1.25 to 4.99,one or more improved mouse 6-hour PK properties compared to hinokitiol,10-25,0.01-0.5,> 2.5,< 25,> 2.5,< 25,,,,,,,,,longer clearence half-life (t1/2) and/or lower intrinsic clearence (CLint) than hinokitiol
